Measured values taken from PubChem BioAssay AID330 (DTP/NCI, 2004).
Several values for one entry are separate records, joined by “and”; a condition that tells them apart may be missing. Equal entries are not always repeated. Toxic doses and inconclusive results are not listed.

Tested on: P388 leukemia ip, CD2F1 mice, survival T/C
Test: NCI In Vivo Anticancer Drug Screen. Data for tumor model P388 Leukemia (intraperitoneal) in CD2F1 (CDF1) mice
Settings: endpoint: median survival time, higher = longer survival
How it was run: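 Mice carrying the transplanted tumor received test compound or vehicle. Survival was recorded in each group, and the value is the treated-group measurement divided by that of the vehicle-treated control group.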

[1] = dose: 50.0 mg/kg/injection, schedule: Q01DX009 (ip), vehicle: saline with Tween-80
[2] = dose: 100.0 mg/kg/injection, schedule: Q01DX009 (ip), vehicle: saline with Tween-80
[3] = dose: 200.0 mg/kg/injection, schedule: Q01DX009 (ip), vehicle: saline with Tween-80
[4] = dose: 50.0 mg/kg/injection, schedule: Q01DX005 (ip), vehicle: Klucel (hydroxypropylcellulose) (HPC)
[5] = dose: 100.0 mg/kg/injection, schedule: Q01DX005 (ip), vehicle: Klucel (hydroxypropylcellulose) (HPC)
[6] = dose: 200.0 mg/kg/injection, schedule: Q01DX005 (ip), vehicle: Klucel (hydroxypropylcellulose) (HPC)
[7] = dose: 50.0 mg/kg/injection, schedule: Q01DX005 (ip), vehicle: saline with Tween-80
[8] = dose: 100.0 mg/kg/injection, schedule: Q01DX005 (ip), vehicle: saline with Tween-80
[9] = dose: 200.0 mg/kg/injection, schedule: Q01DX005 (ip), vehicle: saline with Tween-80
[10] = dose: 60.0 mg/kg/injection, schedule: Q01DX005 (ip), vehicle: saline
[11] = dose: 120.0 mg/kg/injection, schedule: Q01DX005 (ip), vehicle: saline
[12] = dose: 240.0 mg/kg/injection, schedule: Q01DX005 (ip), vehicle: saline
[13] = dose: 25.0 mg/kg/injection, schedule: Q01DX009 (ip), vehicle: saline with Tween-80

CCOC(=O)CSc1nnc(N)s1
T/C [1]: 121 % of control
T/C [2]: 116 % of control
T/C [3]: 98 % of control

CC1(C)C(=O)C(O)=Cc2ccccc21
T/C [4]: 109 % of control
T/C [5]: 107 % of control
T/C [6]: 101 % of control

O=C1CCCc2cc([N+](=O)[O-])ccc2N1
T/C (dose: 100.0 mg/kg/injection, schedule: Q01DX001 (ip), vehicle: Klucel (hydroxypropylcellulose) (HPC)): 101 % of control
T/C (dose: 200.0 mg/kg/injection, schedule: Q01DX001 (ip), vehicle: Klucel (hydroxypropylcellulose) (HPC)): 103 % of control
T/C (dose: 400.0 mg/kg/injection, schedule: Q01DX001 (ip), vehicle: Klucel (hydroxypropylcellulose) (HPC)): 102 % of control

O=C(NC(C(=O)NC(C(=O)O)C1CC(Cl)=NO1)C1CC(Cl)=NO1)OCC1c2ccccc2-c2ccccc21 (configuration not stated)
T/C (dose: 5.0 mg/kg/injection, schedule: Q04DX003 (ip), vehicle: other): 120 % of control
T/C (dose: 12.5 mg/kg/injection, schedule: Q04DX003 (ip), vehicle: other): 150 % of control
T/C (dose: 25.0 mg/kg/injection, schedule: Q04DX003 (ip), vehicle: other): 160 % of control
T/C (dose: 40.0 mg/kg/injection, schedule: Q04DX003 (ip), vehicle: other): 172 % of control
T/C (dose: 50.0 mg/kg/injection, schedule: Q04DX003 (ip), vehicle: other): 222 % of control
T/C (dose: 80.0 mg/kg/injection, schedule: Q04DX003 (ip), vehicle: other): 201 % of control
T/C (dose: 160.0 mg/kg/injection, schedule: Q04DX003 (ip), vehicle: other): 158 % of control

O=C1C(CN2CCCC2)C(O)=C(c2ccccc2)N1c1ccccc1 (configuration not stated)
T/C (dose: 100.0 mg/kg/injection, schedule: Q01DX001 (ip), vehicle: saline with Tween-80): 102 % of control
T/C (dose: 200.0 mg/kg/injection, schedule: Q01DX001 (ip), vehicle: saline with Tween-80): 92 % of control
T/C (dose: 400.0 mg/kg/injection, schedule: Q01DX001 (ip), vehicle: saline with Tween-80): 92 % of control

COc1ccc(/C=C/C(C)=N/NC(N)=O)cc1
T/C [7]: 101 % of control
T/C [8]: 94 % of control
T/C [9]: 96 % of control

Cc1c2cc[n+](CCCCCCCC[n+]3ccc4c(C)c5[nH]c6ccccc6c5cc4c3C)c(C)c2cc2c1[nH]c1ccccc12
T/C (dose: 0.78 mg/kg/injection, schedule: Q04DX003 (ip), vehicle: distilled water + Tween-80): 106 % of control
T/C (dose: 1.56 mg/kg/injection, schedule: Q04DX003 (ip), vehicle: distilled water + Tween-80): 106 % of control
T/C (dose: 3.13 mg/kg/injection, schedule: Q04DX003 (ip), vehicle: distilled water + Tween-80): 109 % of control
T/C (dose: 6.25 mg/kg/injection, schedule: Q04DX003 (ip), vehicle: distilled water + Tween-80): 103 % of control and 113 % of control
T/C (dose: 12.5 mg/kg/injection, schedule: Q04DX003 (ip), vehicle: distilled water + Tween-80): 105 % of control and 116 % of control and 122 % of control
T/C (dose: 25.0 mg/kg/injection, schedule: Q04DX003 (ip), vehicle: distilled water + Tween-80): 116 % of control and 121 % of control and 123 % of control
T/C (dose: 100.0 mg/kg/injection, schedule: Q04DX003 (ip), vehicle: distilled water + Tween-80): 121 % of control

O=C1C(=O)N(c2ccccc2)N=C1N=Nc1ccccc1
T/C [7]: 110 % of control and 115 % of control
T/C [8]: 108 % of control and 114 % of control
T/C [9]: 117 % of control and 120 % of control
T/C (dose: 400.0 mg/kg/injection, schedule: Q01DX005 (ip), vehicle: saline with Tween-80): 109 % of control

Cc1ccc(C)c2c1C(=O)c1c(C)ccc(C)c1C2=O
T/C (dose: 1.5 mg/kg/injection, schedule: Q01DX005 (ip), vehicle: Klucel (hydroxypropylcellulose) (HPC)): 99 % of control
T/C (dose: 3.0 mg/kg/injection, schedule: Q01DX005 (ip), vehicle: Klucel (hydroxypropylcellulose) (HPC)): 94 % of control
T/C (dose: 6.0 mg/kg/injection, schedule: Q01DX005 (ip), vehicle: Klucel (hydroxypropylcellulose) (HPC)): 89 % of control
T/C [4]: 90 % of control
T/C [5]: 87 % of control
T/C [6]: 86 % of control

N#CC(C#N)=C(O)/C(=C/c1ccc(Cl)cc1Cl)NC(=O)c1ccccc1
T/C (dose: 60.0 mg/kg/injection, schedule: Q01DX005 (ip), vehicle: saline with Tween-80): 107 % of control
T/C (dose: 120.0 mg/kg/injection, schedule: Q01DX005 (ip), vehicle: saline with Tween-80): 98 % of control
T/C (dose: 240.0 mg/kg/injection, schedule: Q01DX005 (ip), vehicle: saline with Tween-80): 100 % of control

NN1C(=O)CS/C1=N\C(=S)N/N=C1/SCC(=O)N1N
T/C (dose: 0.04 mg/kg/injection, schedule: Q01DX009 (ip), vehicle: saline): 94 % of control
T/C (dose: 0.09 mg/kg/injection, schedule: Q01DX009 (ip), vehicle: saline): 97 % of control
T/C (dose: 0.19 mg/kg/injection, schedule: Q01DX009 (ip), vehicle: saline): 99 % of control
T/C (dose: 0.78 mg/kg/injection, schedule: Q01DX009 (ip), vehicle: saline): 98 % of control and 99 % of control

[O-][N+]1(CC[N+]2([O-])CCCCC2)CCCCC1
T/C [10]: 97 % of control
T/C [11]: 100 % of control
T/C [12]: 97 % of control

C#C/C=C/CC1O[C@H](/C=C/C)C/C=C\CC1Cl (some centres not stated)
T/C (dose: 7.8 mg/kg/injection, schedule: Q01DX005 (ip), vehicle: Klucel (hydroxypropylcellulose) (HPC)): 94 % of control
T/C (dose: 15.62 mg/kg/injection, schedule: Q01DX005 (ip), vehicle: Klucel (hydroxypropylcellulose) (HPC)): 99 % of control
T/C (dose: 31.25 mg/kg/injection, schedule: Q01DX005 (ip), vehicle: Klucel (hydroxypropylcellulose) (HPC)): 96 % of control
T/C (dose: 62.5 mg/kg/injection, schedule: Q01DX005 (ip), vehicle: Klucel (hydroxypropylcellulose) (HPC)): 88 % of control

CS(=O)CC1OC2OC3C(CO)OC(OC4C(CO)OC(OC5C(CO)OC(OC6C(CO)OC(OC7C(CO)OC(OC8C(CO)OC(OC1C(O)C2O)C(O)C8O)C(O)C7O)C(O)C6O)C(O)C5O)C(O)C4O)C(O)C3O (configuration not stated)
T/C [10]: 100 % of control
T/C [11]: 106 % of control
T/C [12]: 104 % of control

CC1COCCOC(=O)c2cccc(n2)C(=O)OCCOCC(C)O1 (configuration not stated)
T/C (dose: 100.0 mg/kg/injection, schedule: Q04DX003 (ip), vehicle: Klucel (hydroxypropylcellulose) (HPC)): 102 % of control
T/C (dose: 200.0 mg/kg/injection, schedule: Q04DX003 (ip), vehicle: Klucel (hydroxypropylcellulose) (HPC)): 95 % of control
T/C (dose: 400.0 mg/kg/injection, schedule: Q04DX003 (ip), vehicle: Klucel (hydroxypropylcellulose) (HPC)): 102 % of control

CC(Nc1ccc(Br)cc1[N+](=O)[O-])C(=O)O (configuration not stated)
T/C [1]: 110 % of control
T/C [3]: 100 % of control

COC(=O)C1=C(C)NC2(C)SC1C(C)C2C(=O)OC (configuration not stated)
T/C (dose: 12.5 mg/kg/injection, schedule: Q01DX009 (ip), vehicle: saline with Tween-80): 92 % of control and 93 % of control
T/C [13]: 101 % of control and 93 % of control
T/C [1]: 90 % of control and 97 % of control
T/C [2]: 87 % of control and 90 % of control

CC(=O)O.[Pb]
T/C (dose: 25.0 mg/kg/injection, schedule: Q04DX003 (ip), vehicle: saline with Tween-80): 100 % of control
T/C (dose: 50.0 mg/kg/injection, schedule: Q04DX003 (ip), vehicle: saline with Tween-80): 100 % of control
T/C (dose: 100.0 mg/kg/injection, schedule: Q04DX003 (ip), vehicle: saline): 91 % of control

FC(F)(F)c1ccccc1C(Nc1nncs1)Nc1nncs1
T/C [7]: 97 % of control
T/C [8]: 101 % of control
T/C [9]: 107 % of control

O=NN(CCCl)C(=O)Nc1ccc(I)cc1
T/C (dose: 3.0 mg/kg/injection, schedule: Q01DX009 (ip), vehicle: saline with Tween-80): 154 % of control
T/C (dose: 4.5 mg/kg/injection, schedule: Q01DX009 (ip), vehicle: saline with Tween-80): 163 % of control
T/C (dose: 6.25 mg/kg/injection, schedule: Q04DX003 (ip), vehicle: saline with Tween-80): 154 % of control
T/C (dose: 11.0 mg/kg/injection, schedule: Q01DX009 (ip), vehicle: saline with Tween-80): 150 % of control and 152 % of control
T/C (dose: 12.5 mg/kg/injection, schedule: Q04DX003 (ip), vehicle: saline with Tween-80): 163 % of control
T/C (dose: 16.5 mg/kg/injection, schedule: Q01DX009 (ip), vehicle: saline with Tween-80): 154 % of control and 157 % of control
T/C [13]: 152 % of control and 154 % of control and 163 % of control
T/C (dose: 25.0 mg/kg/injection, schedule: Q04DX003 (ip), vehicle: saline sonified): 150 % of control
T/C (dose: 37.5 mg/kg/injection, schedule: Q01DX009 (ip), vehicle: saline with Tween-80): 171 % of control and 177 % of control
T/C [1]: 200 % of control
T/C (dose: 50.0 mg/kg/injection, schedule: Q04DX003 (ip), vehicle: saline sonified): 183 % of control
